Here are results for 13 molecules from paper PMC9032987, “Cytotoxic Alkylynols of the Sponge Cribrochalina vasculum: Structure, Synthetic Analogs and SAR Studies” (Marine Drugs, 2022).

Common to all, as to assay type: cell-based, human
One data set concerns NSCLC U-1810 cells. The data set can be described thus: MTT cytotoxicity assay in NSCLC U-1810 cells. The conditions noted are these: for pIC50: U-1810, 72 h, MTT, 72 h post addition, estimated from cell viability curve; for viability at 162 µM: U-1810, at 162 µM. The procedure: (§1) Cytotoxicity structure-activity relationship analyses of compounds in NSCLC tumor cells and fibroblasts. Stock solutions (10 mg/mL) of the compounds to be tested were made in DMSO and further diluted with cell culture media prior to structure-activity relationship (SAR) screening as earlier described. To assess anti-tumor activity, the large cell lung carcinoma cell line NSCLC U-1810 (kind gift from Uppsala University) and diploid lung fibroblasts WI-38 [30] were used. U-1810 cells were propagated in RPMI-1640 medium (Sigma-Aldrich, St. Louis, […], USA) supplemented with FBS (10% HyClone) and L-glutamine (2 mmol/L, Invitrogen) while WI-38 fibroblasts were cultured in Eagle’s Minimum Essential Medium (Sigma-Aldrich) with 15% FBS and L-glutamine. For SAR assessment the cytotoxic assay 3-(4,5-dimethylthiazol-2-yl)-2,5 diphenyltetrazolium bromide (MTT) was applied. Profiling of U-1810 cells was carried out at 80% confluency (obtained by seeding 5000 cells/well in a 96-well plate for 24 h prior to treatment) and of WI-38 at 100% confluency (obtained by seeding 18,000 cells/well in a 96-well plate for 24 h prior to compound addition), the later to mimic the behavior of fibroblasts in the human body where they are non-dividing. For SAR evaluation, different concentrations of the compounds were added to fresh media while untreated cells were treated with DMSO corresponding to the amount applied when testing the highest concentration of the different compounds. The cytotoxicity of the compounds was assessed at 72 h post addition to cells by adding MTT solution (0.5 mg/mL, Sigma-Aldrich, 4 h at 37 °C) and dissolving the resulting formazan crystals in an SDS-containing solution (10% SDS and 0.01 mol/L HCl). Absorbance was quantified at 595 nm and the compound-induced cytotoxicity was calculated relative to that observed in DMSO-treated cells. The IC50 values were deduced from survival plots drawn in Graph Pad PRISM software vers.6 and for some of the compounds extrapolated as indicated in footnotes to Table 1.

For data set [1], the system named is WI-38 diploid lung fibroblasts. Put plainly: MTT cytotoxicity assay in diploid lung fibroblasts WI-38. The conditions noted are these: for pIC50: Homo sapiens, WI-38, 72 h, MTT, 72 h post addition, confluent cells, estimated from cell viability curve. As for the experimental part:
as §1

Experiment in data set [2]: as above
As to conditions: human, WI-38 diploid lung fibroblasts, 72 h, read-out: cell viability. As for the experimental part:
as §1

Setting [3] is: calculated at IC50 (WI-38 IC50 / U-1810 IC50).
Where [4] appears, read: calculated at IC50 of U-1810 and the highest dose applied in WI-38 (IC50 not reached).
Where [5] appears, read: Homo sapiens, 72 h, read-out: cell viability.

Each structure is given as a SMILES string. pIC50: −log10 of the molar value.

As a reminder, the pIC50 is −log10 of the IC50, conventionally taken in molar units. With `C#CC(O)/C=C/CCCCCCCCCCCCCCC` (racemic) [rac-18, rac-Icos-(4E)-en-1-yn-3-ol], the pIC50 is 5.92 in the data set with NSCLC U-1810 cells (Homo sapiens) and 5.08 in data set [1]. Also, the “Selectivity NSCLC cells (U-1810) vs. diploid fibroblasts (WI-38)” value (“Selectivity NSCLC cells” below) with NSCLC U-1810 cells (setting [3]) is 6.9.

As for `C#CC(O)/C=C/C=C/CCCCCCCCCCCCCCC` (racemic) [rac-27, (4E,6E)-docosa-4,6-dien-1-yn-3-ol], the pIC50 in the data set with NSCLC U-1810 cells (Homo sapiens) was approximately 5.62. In addition, in data set [1], the “cytotoxicity to WI-38 fibroblasts (in words)” value was “did not affect the viability” and the negative logarithm of the IC50 (pIC50) was 4.15.

As for `C#CC(O)CCCCCCCCC` (racemic) [rac-31, Dodec-1-yn-3-ol], the “cytotoxic activity in NSCLC U-1810 cells (in words)” value in the data set with NSCLC U-1810 cells is reported as “much lower toxicity”. In addition, in the data set on NSCLC U-1810 cells (Homo sapiens), the pIC50 was 4.82.

For `C#CC(O)CCCCCCCCCCCCCCC` (racemic) [rac-32, Octadec-1-yn-3-ol], the pIC50 in the data set with NSCLC U-1810 cells (Homo sapiens) was 5.52; in data set [1], 4.12. In the data set on NSCLC U-1810 cells (setting [3]), the “Selectivity NSCLC cells” value is 25.

A word on the viability: it is the share of living cells, or the viability signal relative to a control. For `C#CC(O)CCCCCCCCCCCCCCCCC` (racemic) [rac-33, Icos-1-yn-3-ol], the pIC50 is 5.55 in the data set on NSCLC U-1810 cells (Homo sapiens) and less than 3.77 in data set [1]. For the same molecule, the viability at 72 h, 170 µM in data set [2] (WI-38, at 170 µM) is approximately 100%.

Turning to `C#CC(CCCCCCCCCCCCCCC)OS(=O)(=O)c1ccc(C)cc1` (racemic) [rac-35, Octadec-1-yn-3-yl 4-methylbenzenesulfonate], the pIC50 with NSCLC U-1810 cells (Homo sapiens) is 4.64; in data set [1], less than 3.92. Besides, in the data set on NSCLC U-1810 cells (setting [4]), the “Selectivity NSCLC cells” value is reported as >5.2 ^s. For the same molecule, the viability at 72 h, 119 µM in data set [2] (WI-38, at 119 µM) is approximately 85%.

On to `C#CC(Cl)CCCCCCCCCCCCCCC` (racemic) [rac-36, 3-chlorooctadec-1-yne], for which the “tumor selective cytotoxicity NSCLC vs WI-38 (in words)” value (“tumor selective cytotoxicity NSCLC” for short) in the data set with NSCLC U-1810 cells is given as “did not display any specific cytotoxicity”. Further, the values for the negative logarithm of the IC50 (pIC50) (with NSCLC U-1810 cells (Homo sapiens); in data set [1]) were 3.85 and less than 3.76, respectively. Besides, the “Selectivity NSCLC cells” value in the data set on NSCLC U-1810 cells (setting [4]) was >1.3 ^u. In data set [2] (WI-38, at 175 µM), the viability at 72 h, 175 µM was approximately 75%.

In the case of `C#CC(N)CCCCCCCCCCCCCCC` (racemic) [rac-37, Octadec-1-yn-3-amine], the figures for the pIC50 (in the data set on NSCLC U-1810 cells (Homo sapiens); in data set [1]) were 4.54 and 4.47, respectively. For the same molecule, the “Selectivity NSCLC cells” value in the data set on NSCLC U-1810 cells (setting [3]) is 1.2.

As to `C#CC(CCCCCCCCCCCCCCC)OC` (racemic) [rac-38, 3-Methoxyoctadec-1-yne], in the data set with NSCLC U-1810 cells, the “tumor selective cytotoxicity NSCLC” value is “did not display any specific cytotoxicity”. The pIC50 (with NSCLC U-1810 cells (Homo sapiens); in data set [1]) was less than 3.75 each time. In addition, in the data set with NSCLC U-1810 cells (Homo sapiens, U-1810, at 179 µM, 72 h, read-out: cell viability), the viability at 179 µM is approximately 71%. For the same molecule, in data set [2] (WI-38, at 179 µM), the viability at 72 h, 179 µM is approximately 77%.

As to `C#CC(CCCCCCCCCCCCCCC)SC(C)=O` (racemic) [rac-39, S-Octadec-1-yn-3-yl ethanethioate], the “tumor selective cytotoxicity NSCLC” value with NSCLC U-1810 cells is on record as “did not display any specific cytotoxicity”. The pIC50 was 4.22 in the data set with NSCLC U-1810 cells (Homo sapiens) and less than 3.81 in data set [1]. For the same molecule, the viability at 72 h, 154 µM in data set [2] (WI-38, at 154 µM) was approximately 85%.

For `C#CC(S)CCCCCCCCCCCCCCC` (racemic) [rac-40, Octadec-1-yne-3-thiol], in the data set with NSCLC U-1810 cells, the “tumor selective cytotoxicity NSCLC” value was “did not display any specific cytotoxicity”. Further, the pIC50 (in the data set with NSCLC U-1810 cells (Homo sapiens); in data set [1]) was less than 3.75 each time. In the data set with NSCLC U-1810 cells (Homo sapiens, U-1810, at 177 µM, 72 h, read-out: cell viability), the viability at 177 µM is approximately 100%. Moreover, the viability at 72 h, 177 µM in data set [2] (WI-38, at 177 µM) is approximately 100%.

In the case of `C#CC(C)(O)CCCCCCCCCCCCCCCC` (racemic) [rac-41, 3-Methylnonadec-1-yn-3-ol], the pIC50 in the data set on NSCLC U-1810 cells (Homo sapiens) was less than 3.79. Moreover, the viability at 162 µM in the data set with NSCLC U-1810 cells (setting [5]) was approximately 54%.

For the molecule `CC#CC(O)CCCCCCCCCCCCCCCCC` (racemic) [rac-42, Henicos-2-yn-4-ol], the pIC50 in the data set on NSCLC U-1810 cells (Homo sapiens) was less than 3.79. In the data set on NSCLC U-1810 cells (setting [5]), the viability at 162 µM is approximately 90%.
